Measured values published in PMC11870743, “Endothelial OX40 activation facilitates tumor cell escape from T cell surveillance through S1P/YAP-mediated angiogenesis” (The Journal of Clinical Investigation, 2025).

Molecular target: T1, YAP (Yes 1–associated protein), purified (Homo sapiens, UniProt P46937)
T1 construct: gene YAP1; purified YAP protein
Experiment: microscale thermophoresis
Type: binding
Conditions: read-out: dissociation constant

T1 sequence (P46937 whole entry): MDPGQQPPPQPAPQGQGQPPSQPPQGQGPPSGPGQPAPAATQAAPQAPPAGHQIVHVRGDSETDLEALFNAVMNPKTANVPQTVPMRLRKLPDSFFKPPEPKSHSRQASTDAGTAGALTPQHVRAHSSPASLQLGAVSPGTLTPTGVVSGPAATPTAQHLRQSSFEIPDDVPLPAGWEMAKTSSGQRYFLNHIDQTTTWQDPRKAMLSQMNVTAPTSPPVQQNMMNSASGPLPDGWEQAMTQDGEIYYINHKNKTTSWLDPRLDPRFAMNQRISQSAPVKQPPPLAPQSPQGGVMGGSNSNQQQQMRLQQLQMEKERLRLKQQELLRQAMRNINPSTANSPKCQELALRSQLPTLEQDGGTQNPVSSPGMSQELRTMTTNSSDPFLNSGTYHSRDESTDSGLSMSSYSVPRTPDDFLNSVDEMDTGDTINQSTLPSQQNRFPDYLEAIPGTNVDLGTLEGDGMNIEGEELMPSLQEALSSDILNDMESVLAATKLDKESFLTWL

Kd: 13 µM
Compound: CCCCCCCCCCCCC/C=C/[C@@H](O)[C@@H](N)COP(=O)(O)O [sphingosine 1-phosphate]
